Results reported in patent USRE47078E1, “Polymorphic forms of N-[4-(trifluoromethyl)benzyl]-4-methoxybutyramide” (Laboratorio Farmaceutico C.T. S.R.L., priority 2007, dated 2018).
Converted amounts (≈) assume the structure as drawn.

How the values were obtained:
Rat = details: compared with GHB, according to EP 0 932 597 B1; cited from earlier work
[1] = Solubility of the polymorphs at different pH (HPLC assay); type: physicochemical
Method: Both samples of powder (Form A and Form B) were used in order to evaluate the solubility properties of the two polymorphs at different pH.
The two samples were tested in the following pH conditions: • Hydrochloric acid buffer at pH=1.2 • Acetic acid at pH=3.0 • Phosphate buffer at pH=3.0 • Phosphate buffer at pH=4.6 • Phosphate buffer at pH=6.0 • Phosphate buffer at pH=7.4 • Alkaline phosphate buffer at pH=8.0
0.5 g of each samples were dissolved in a glass flask using 100 ml of the appropriate buffer. The two samples were then kept under stirring for 30 minutes. If the samples were completed dissolved, 1 additional gram was added in the flask and stirred for 30 minutes. The procedure was repeated till the presence of undissolved product in the bottom of the flask. After such a dissolution procedure, the samples were stored for 24 hours and then the dissolved amounts of Form A and Form B, respectively, were determined by HPLC assay.

[2] = Thermodynamic stability / interconversion of the polymorphs; type: physicochemical

Question: With `COCCCC(=O)NCc1ccc(C(F)(F)F)cc1` [N-[4-(trifluoromethyl)benzyl]-4-methoxybutyramide] as the compound, how does the “Potency and duration of action on motor activity” value (Rat) read?
Answer: better than GHB

Question: What does the source list for `COCCCC(=O)NCc1ccc(C(F)(F)F)cc1` [Polymorphic Form B, N-[4-(trifluoromethyl)benzyl]-4-methoxybutyramide]?
Answer: Solubility, After 24 hours ([1]; Water): 162.64 µg/mL (≈ 591 µM); Solubility, Initial evaluation ([1]; Water): 125.44 µg/mL (≈ 456 µM); Differences in solubility / dissolution properties between the two forms ([1]; dissolution tests on each polymorph): have not shown differences in the solubility properties; Solubility, After 24 hours ([1]; pH 1.2): 164.47 µg/mL (≈ 597 µM); Solubility, Initial evaluation ([1]; pH 1.2): 136.12 µg/mL (≈ 494 µM); Solubility, After 24 hours ([1]; pH 3.0 (acetic acid)): 164.84 µg/mL (≈ 599 µM); Solubility, Initial evaluation ([1]; pH 3.0 (acetic acid)): 143.69 µg/mL (≈ 522 µM); Solubility, After 24 hours ([1]; pH 3.0 (phosphate buffer)): 156.73 µg/mL (≈ 569 µM); Solubility, Initial evaluation ([1]; pH 3.0 (phosphate buffer)): 126.87 µg/mL (≈ 461 µM); Solubility, After 24 hours ([1]; pH 4.6): 147.14 µg/mL (≈ 535 µM); Solubility, Initial evaluation ([1]; pH 4.6): 129.35 µg/mL (≈ 470 µM); Solubility, After 24 hours ([1]; pH 6.0): 143.2 µg/mL (≈ 520 µM); Solubility, Initial evaluation ([1]; pH 6.0): 125.95 µg/mL (≈ 458 µM); Solubility, After 24 hours ([1]; pH 6.8): 146.25 µg/mL (≈ 531 µM); Solubility, Initial evaluation ([1]; pH 6.8): 131.46 µg/mL (≈ 478 µM); Solubility, After 24 hours ([1]; pH 7.4): 143.79 µg/mL (≈ 522 µM); Solubility, Initial evaluation ([1]; pH 7.4): 113.60 µg/mL (≈ 413 µM); Solubility, After 24 hours ([1]; pH 8.0): 146.25 µg/mL (≈ 531 µM); Solubility, Initial evaluation ([1]; pH 8.0): 130.61 µg/mL (≈ 474 µM); Thermodynamic stability, conversion of one form into the other [2]: thermodynamically stable, with no conversion of one into the other
